According to PMC8150775, “Repositioning Azelnidipine as a Dual Inhibitor Targeting CD47/SIRPα and TIGIT/PVR Pathways for Cancer Immuno-Therapy” (Biomolecules, 2021):

Key:
[1] = test system: MC38 tumors; assay: MC38 tumor model, alone or combined with radiotherapy, with ex vivo analysis; assay type: in vivo, C57BL/6 mice
Protocol: BABL/c mice were subcutaneously (s.c.) injected with 2 × 10^5 CT26 cells on the right back, and C57BL/6 mice were injected with 1 × 10^6 MC38 cells. One week later, tumor-bearing mice were randomized into indicated groups, and intraperitoneal (i.p.) injected with azelnidipine or normal saline every day for two weeks. Tumor volumes were measured every other day by the (a) length, (b) width, and (c) height and calculated as volume (V) = a × b × c/2. For the combinational model of azelnidipine and radiotherapy (RT), MC38 tumor-bearing mice received irradiation (IR) when the tumors reached 80–100 mm^3. The mice received one dose of 20 Gy irradiation at the tumor local site, and followed by the treatment of azelnidipine.
Tumor-bearing mice were sacrificed at the end of the treatment. The tumors were dissected and digested into single cell with an enzyme cocktail of 100 U/mL collagenase IV; and Dnase I. The infiltration of CD8^+ T cells at the tumor site was detected by flow cytometry by staining of anti-mouse CD45, anti-mouse CD3, anti-mouse CD8α or isotype control. The MDSCs at the tumor site were analyzed by staining of anti-mouse CD45, anti-mouse CD11b, anti-mouse Ly6C, and anti-mouse Ly6G. […] The frequency of IFN-γ secreting CD8^+ T cells were counted according to the fluorescence minus one (FMO) control with the isotype control of IFN-γ antibody. […]

[2] = target: T1, TIGIT/PVR interaction (Homo sapiens, UniProt P15151); assay: Blocking assay by flow cytometry, preliminary screening at a single concentration, TIGIT/PVR; assay type: binding; settings: preliminary test, single concentration of 100 μM
T1 construct: purchased ACRO Biosystem CD5-H82F6; host or cells: CHOK1-TIGIT cells (lenti-viral transfection)
T1 sequence (P15151 21-343 limits assumed): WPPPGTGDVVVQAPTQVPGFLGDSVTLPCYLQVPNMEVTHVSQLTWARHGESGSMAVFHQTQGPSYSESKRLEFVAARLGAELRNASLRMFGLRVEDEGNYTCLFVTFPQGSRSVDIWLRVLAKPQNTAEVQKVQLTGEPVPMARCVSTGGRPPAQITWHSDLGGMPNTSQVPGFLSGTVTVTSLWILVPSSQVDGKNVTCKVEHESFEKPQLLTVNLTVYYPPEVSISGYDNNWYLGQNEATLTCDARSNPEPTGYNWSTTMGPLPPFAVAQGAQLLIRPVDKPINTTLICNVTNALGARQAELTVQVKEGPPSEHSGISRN
Protocol: The abilities of small molecule inhibitors (SMIs) (purchased from TargetMol, Shanghai, China) to block the binding of SIRPα protein to CHOK1-CD47 cells or PVR protein to CHOK1-TIGIT cells were determined by flow cytometry, as previously reported. The SMIs at indicated concentrations were incubated with Fc-tagged SIRPα or PVR protein for 30 min at 4°C, followed by incubating with the indicated cells for another 30 min. Human SIRPα protein (SIA-H5251, ACRO Biosystem, Beijing, China), mouse SIRPα protein (SIA-M5258, ACRO Biosystem, Beijing, China), human PVR protein (CD5-H82F6, ACRO Biosystem, Beijing, China), and mouse PVR protein (50259-M03H, Sino Biological, Beijing, China) were used. PE-conjugated anti-human IgG antibody was used to detect the Fc protein bind to cells. Cells incubated with the Fc proteins and anti-human IgG antibody without the SMIs serve as the positive control. The mean fluorescent intensity (MFI) of each sample was detected and recorded by a flow cytometry. The blocking efficacy of the SMIs was calculated as the equation: (MFI of the positive control-MFI of the SMI)/MFI of the positive control × 100%.
The small molecule inhibitor could not only bind to the target; most importantly, it should interfere with the receptor–ligand interactions. Subsequently, the candidate inhibitors were screened by the blocking assays with the established CD47 and TIGIT over-expressing cell lines. The test was initialed with a preliminary screening of the candidates with a single concentration (Figure 2D). Generally, the SMI blocking efficacy to the CD47/SIRPα interaction was much higher than that of the TIGIT/PVR. […] Therefore, the SMI-F11 and SMI-F17 may exert dual blocking effects in the CD47/SIRPα and TIGIT/PVR pathways. Blocking assays with a concentration gradient of the SMI were further performed to validate the preliminary screening. […] The similar blocking assays with the mouse CD47 and TIGIT over-expressing cells were also performed. […] Considering that most pairs of the immune checkpoints interact with the corresponding ligand in parallel forms, the blocking assays with the PD-1/PD-L1 interaction system was also conducted to test the specificity.

Question: `CC1=C(C(=O)OC(C)C)C(c2cccc([N+](=O)[O-])c2)C(C(=O)OC2CN(C(c3ccccc3)c3ccccc3)C2)=C(N)N1` (stereo not drawn) [Azelnidipine] was tested. Which “growth of MC38 tumors, combination with IR” value ([1]; 5 mg/kg i.p. each day combined with 20 Gy local IR) did it give?
Answer: remarkably suppress tumor growth

Question: What about the “growth of MC38 tumors” value ([1]; 2 and 5 mg/kg i.p. each day for 2 weeks, alone) of the same molecule?
Answer: significantly restrict

Question: And the “activity in interfering with the TIGIT/PVR interaction” value [2]?
Answer: better activities
